# Assay results taken from patent US6759538B2, “Substituted diphenyl heterocycles useful for treating HCV infection” (priority 2001, dated 2004).
# What was measured:
# HCV replicon = HCV replicon assay (luciferase); assay type: cell-based, Hepatitis C virus (HCV); settings: 5-2 Luc replicon cells, 24 hours with compound, luciferase emission; first symbol of Replicon/Western
# [1] = tested on: HCV nonstructural protein NS5A; assay: Quantitative Western blot assay; assay type: cell-based, Hepatitis C virus (HCV); settings: 9-13 replicon cells, 48 hours with compound, second symbol of Replicon/Western
# Protocol: Alternatively, the inhibitory activity of the compounds can be confirmed using a quantitative Western immunoblot assay utilizing antibodies specific for HCV non-structural proteins, such as NS3, NS4A NS5A and NS5B. In one embodiment of this assay, replicon cells are treated with varying concentrations of test compound to determine the concentration of test compound that yields a 50% reduction in the amount of a non-structural protein produced as compared to a control sample (IC50). A single non-structural protein may be quantified or multiple non-structural proteins may be quantified. Antibodies suitable for carrying out such immunoblot assays are available commercially (e.g., from BIODESIGN International, Saco, Me.).
# Certain exemplary compounds of the invention were also tested for their ability to inhibit HCV replication using a quantitative Western blot analysis with antibodies specific for the HCV nonstructural protein NS5A. Actively dividing 9-13 replicon cells were seeded into 6-well plates at a density of 1×10^5 cells/well in a volume of 2 ml/well and incubated at 37° C. and 5% CO2 for 24 hours. Various concentrations of test compounds (in a volume of 10 ul) were added to the wells and the cells incubated for another 48 hours. Protein samples were prepared from the cultured cells, resolved on a SDS-PAGE gel and transferred to a nitrocellulose membrane. The membrane was blocked with 5% non-fat milk in PBS for 1 hour at room temperature. Primary antibody (anti NS5A antibody; BIODESIGN International, Saco, Me.) incubation was performed for 1 hour at room temperature, after which the membrane was washed 3 times (for 15 min per time) with PBST (PBS plus 0.1% Tween 20). Horseradish peroxidase conjugated secondary antibody incubation was performed for 1 hour at room temperature and the membrane was washed 3 times (for 15 min per time) with PBST. The membrane was then soaked in substrate solution (Pierce) and exposed to a film or quantified using an imager. In this assay, the amount of test compound that yielded a 50% reduction in the amount of NS5A protein translated as compared to a control sample (IC50) was determined.
# HCV virus = assay: HCV infection assay; assay type: cell-based, Hepatitis C virus (HCV); settings: hepatocyte cells from a donor, inoculated Day 3, RNA Day 8; read-out: IC50 HCV infection assay (HCV RNA, Taqman)
# Text: Alternatively, the inhibitory activity of the compounds may be confirmed in an HCV infection assay, such as the HCV infection assay described in Fournier et al., 1998, J. Gen. Virol. 79(10):2367:2374, the disclosure of which is incorporated herein by reference. In one embodiment of this assay, the amount of test compound that yields a 50% reduction in HCV replication or proliferation as compared to a control cell (IC50) may be determined. The extent of HCV replication may be determined by quantifying the amount of HCV RNA present in HCV infected cells. A specific method for carrying out such an assay is provided in the Examples section.
# The activity of Compound 9 was also confirmed in an HCV infection assay. The assay was carried out essentially as described in Fournier et al., 1998, J. Gen. Virol. 79:2367-2374. Briefly, hepatocyte cells from a doner were plated on Day 1. On Day 3, the cells were inoculated with HCV virus and test compound was added. On Day 5, the medium was changed and test compound was added. On Day 7, the medium was changed and test compound was added. On Day 8, the RNA was isolated and the HCV RNA quantified using a Taqman assay.
# [2] = Safety studies in rats, subcutaneous and intravenous administration
# Protocol: The safety of compound 9 was evaluated in rats by both subcutaneous and intravenous administration in several experiments. […] The experiments performed are summarized below.
# In a second study compound 9 was administered by the IV route at doses of 10 and 30 mg/kg in 100% PEG. The volume administered for the 10 mg/kg dose was 0.67 ml/kg/day and volume given the 30 mg/kg group was 2 ml/kg/day. In addition, there were two control groups. One control received 100% PEG alone at a volume of 2 ml/kg/day while the other was an untreated sham control group. […] Parameters of study included: clinical observations, body weights, hematology, clinical chemistry, gross necropsy, organ weights, bone marrow assessment and histopathology of selected organs.
# A vehicle control group received the 100% PEG alone at the same volume. Groups comprised 3 males and 3 females each. Before reducing the dose to 10 and 30 mg/kg two rats received 100 mg/kg IV at a volume of 1 ml/kg. […] Parameters of study included: clinical observations, body weights, hematology, clinical chemistry, gross necropsy, organ weights and histopathology of selected organs (including injection sites).
# [3] = Pharmacokinetics, plasma levels with liposome suspension vehicles; assay type: in vivo, rats, monkeys and chimpanzees; settings: subcutaneous, liposome suspension vehicles: 5 mg/ml in water with 100 or 200 mg/ml lecithin, or 100 mg/ml lecithin and 5 mg/ml cholesterol
# Protocol: The pharmacokinetic properties of compound 9 were calculated in rats, monkeys and chimpanzees using the intravenous and subcutaneous routes of administration with a variety of different delivery vehicles.
# [4] = Toxicokinetic determinations in rats; settings: rat
structure (smiles),measurement,setting,value
"O=C(Nc1cccc(-c2cc(-c3c(Cl)cccc3Cl)no2)c1)C(Cl)Cl [Compound 9, 2,2-Dichloro-N-[3-[3-(2,6-dichlorophenyl)-5-isoxazolyl]phenyl] Acetamide]",IC50,HCV replicon,≤ 10 µM
same,IC50,[1],≤ 10 µM
same,IC50,HCV virus,< 10 µM
same,"other findings, second study","[2]; IV 10 and 30 mg/kg, 7 days",no untoward findings
same,"well tolerated dose, first study","[2]; Sprague Dawley rats, SC and IV, dose escalation",≤ 30 mg/kg
same,clinical signs at IV 60 mg/kg,"[2]; first study, Day 5, IV 60 mg/kg in 100% PEG","immediate clinical signs (collapsing, thrashing, dyspnea and reddish discolored urine) were observed"
same,time for symptoms to abate,"[2]; first study, IV 60 mg/kg",≤ 1 h
same,NOAEL (no observed adverse effect level),"[2]; rat, IV, 7 days",30 mg/kg
same,NOAEL,"[2]; rat, intravenous, 14-days",30 mg/kg
same,well tolerated dose,"[2]; rats, subcutaneous and intravenous",≤ 30 mg/kg/day
same,hematology finding at 30 mg/kg,"[2]; second study, IV, 100% PEG, 7 days, relative to untreated control but not vehicle control","very slight decreases in red blood cells, hemoglobin and hematocrit"
same,necropsy findings,"[2]; third study, IV 10 and 30 mg/kg",no gross or microscopic morphological changes
same,"clinical observations, body weights, hematology, clinical chemistry, organ weights","[2]; third study, IV 10 and 30 mg/kg, versus vehicle control",unaffected by treatment
same,mortality at 100 mg/kg IV,"[2]; third study, two rats, 100 mg/kg IV, 1 ml/kg",Both animals died within a minute or two of dosing
same,plasma levels,[3],Sustained plasma levels were achieved
same,T1/2,[4]; IV,about 5 minutes
same,"exposure, IV route",[4]; IV,high exposure
same,persistence of measurable compound,[4]; IV,still apparent after 2 hours
same,Tmax,[4]; SC,about 30 minutes
same,"exposure, subcutaneous route",[4]; SC,much lower exposure
same,persistence of exposure,[4]; SC,remains sustained through 2 hours post-dosing
